The text below walks through data of ChEMBL document CHEMBL5223095, “Structure activity relationship of N-1 substituted 1,5-naphthyrid-2-one analogs of oxabicyclooctane-linked novel bacterial topoisomerase inhibitors as broad-spectrum antibacterial agents (Part-9)” (Bioorg Med Chem Lett, 2022).

As a reminder, the MIC is the least concentration at which growth counts as inhibited.

Converted amounts (≈) assume the structure as drawn. Some results are limits rather than exact numbers.

Common to all, as to format: functional
One assay has as its system Staphylococcus aureus. Description: Antibacterial activity against methicillin-resistant Staphylococcus aureus OITII-971 assessed as bacterial growth inhibition by CLSI protocol agar-based assay.
Another assay has as its system Streptococcus pneumoniae. Description: Antibacterial activity against Streptococcus pneumoniae IID553 assessed as bacterial growth inhibition by CLSI protocol agar-based assay.
The next assay deals with Enterococcus faecium. As to the kind of experiment: Antibacterial activity against Vanomycin-resistant Enterococcus faecium assessed as bacterial growth inhibition by CLSI protocol agar-based assay.
The next assay concerns Escherichia coli. As to the kind of experiment: Antibacterial activity against Escherichia coli ATCC 25922 assessed as bacterial growth inhibition by CLSI protocol agar-based assay.
A further assay has as its system Acinetobacter baumannii. As to the kind of experiment: Antibacterial activity against Acinetobacter baumannii IID876 assessed as bacterial growth inhibition by CLSI protocol agar-based assay.
For the next assay, the system named is Pseudomonas aeruginosa. As to the kind of experiment: Antibacterial activity against Pseudomonas aeruginosa PAO1 assessed as bacterial growth inhibition by CLSI protocol agar-based assay.

For `O=C1COc2ccc(CNC34CCC(CCc5c(F)cnc6ccc(=O)n(C/C=N/O)c56)(CC3)OC4)nc2N1`, the MIC was found to be 0.25 µg/mL (≈ 0.466 µM) in the assay on Staphylococcus aureus; 0.5 µg/mL (≈ 0.932 µM) in the assay on Streptococcus pneumoniae; 4 µg/mL (≈ 7.45 µM) with Enterococcus faecium; 4 µg/mL (≈ 7.45 µM) in the assay on Escherichia coli; 2 µg/mL (≈ 3.73 µM) with Acinetobacter baumannii; 8 µg/mL (≈ 14.9 µM) with Pseudomonas aeruginosa.
For the molecule `O=C(NC12CCC(CCc3c(F)cnc4ccc(=O)n(CCO)c34)(CC1)OC2)c1cc2c(cn1)OCCO2`, the MIC was 1 µg/mL (≈ 1.91 µM) in the assay on Staphylococcus aureus; 2 µg/mL (≈ 3.81 µM) in the assay with Streptococcus pneumoniae; 16 µg/mL (≈ 30.5 µM) in the assay on Enterococcus faecium; greater than 32 µg/mL in the assay with Escherichia coli; 32 µg/mL (≈ 61 µM) in the assay with Acinetobacter baumannii; greater than 32 µg/mL in the assay on Pseudomonas aeruginosa.
Consider `O=C1COc2ccc(C(=O)NC34CCC(CCc5c(F)cnc6ccc(=O)n(CCO)c56)(CC3)OC4)nc2N1`, for which the MIC in the assay on Staphylococcus aureus was 0.125 µg/mL (≈ 0.233 µM); in the assay with Streptococcus pneumoniae it was 1 µg/mL (≈ 1.86 µM); in the assay with Enterococcus faecium, 4 µg/mL (≈ 7.44 µM); in the assay with Escherichia coli, 16 µg/mL (≈ 29.8 µM); in the assay on Acinetobacter baumannii, 4 µg/mL (≈ 7.44 µM); in the assay on Pseudomonas aeruginosa, 32 µg/mL (≈ 59.5 µM).
Turning to `O=c1ccc2ncc(F)c(CCC34CCC(NCc5cc6c(cn5)OCCC6)(CC3)CO4)c2n1CCO`, the MIC with Staphylococcus aureus is 0.063 µg/mL (≈ 0.124 µM); in the assay with Streptococcus pneumoniae, 0.25 µg/mL (≈ 0.492 µM); in the assay on Enterococcus faecium, 4 µg/mL (≈ 7.86 µM); in the assay with Escherichia coli, 8 µg/mL (≈ 15.7 µM); with Acinetobacter baumannii, 1 µg/mL (≈ 1.97 µM); with Pseudomonas aeruginosa it was greater than 64 µg/mL.
In the case of `O=C(NC12CCC(CCc3c(F)cnc4ccc(=O)n(CCO)c34)(CC1)OC2)c1cc2c(cn1)OCCC2`, the minimum inhibitory concentration (MIC) with Staphylococcus aureus is 0.5 µg/mL (≈ 0.957 µM); in the assay on Streptococcus pneumoniae, 1 µg/mL (≈ 1.91 µM); in the assay on Enterococcus faecium it was 16 µg/mL (≈ 30.6 µM); in the assay with Escherichia coli it was greater than 32 µg/mL; in the assay on Acinetobacter baumannii, 8 µg/mL (≈ 15.3 µM); with Pseudomonas aeruginosa, greater than 32 µg/mL.
As for `O=c1ccc2ncc(F)c(CCC34CCC(NCc5ccc6nsnc6c5)(CC3)CO4)c2n1CCO`, the MIC in the assay with Staphylococcus aureus was 0.125 µg/mL (≈ 0.245 µM); in the assay on Streptococcus pneumoniae it was 1 µg/mL (≈ 1.96 µM); in the assay with Enterococcus faecium, 8 µg/mL (≈ 15.7 µM); with Escherichia coli, 32 µg/mL (≈ 62.8 µM); in the assay with Acinetobacter baumannii, 4 µg/mL (≈ 7.85 µM); in the assay on Pseudomonas aeruginosa, greater than 64 µg/mL.
For the molecule `CN(C)C(=O)Cn1c(=O)ccc2ncc(F)c(CCC34CCC(NCc5ccc6c(n5)NC(=O)CO6)(CC3)CO4)c21`, the minimum inhibitory concentration (MIC) with Staphylococcus aureus came to 1 µg/mL (≈ 1.77 µM); in the assay on Streptococcus pneumoniae it was 4 µg/mL (≈ 7.08 µM); in the assay with Enterococcus faecium it was 32 µg/mL (≈ 56.7 µM); with Escherichia coli, 32 µg/mL (≈ 56.7 µM); with Acinetobacter baumannii, 8 µg/mL (≈ 14.2 µM); with Pseudomonas aeruginosa, 64 µg/mL (≈ 113 µM).
Turning to `C[C@@H]1CCc2cc(CNC34CCC(CCc5c(F)cnc6ccc(=O)n(CCO)c56)(CC3)OC4)ncc2O1`, the MIC in the assay on Staphylococcus aureus was 1 µg/mL (≈ 1.91 µM); in the assay on Streptococcus pneumoniae, 1 µg/mL (≈ 1.91 µM); in the assay with Enterococcus faecium, 32 µg/mL (≈ 61.2 µM); in the assay on Escherichia coli it was greater than 64 µg/mL; in the assay with Acinetobacter baumannii it was 64 µg/mL (≈ 122 µM); with Pseudomonas aeruginosa it was greater than 64 µg/mL.
As for `O=c1ccc2ncc(F)c(CCC34CCC(NCc5cc6c(cn5)OCCO6)(CC3)CO4)c2n1CCO`, the MIC with Staphylococcus aureus was 0.125 µg/mL (≈ 0.245 µM); with Streptococcus pneumoniae, 0.5 µg/mL (≈ 0.979 µM); with Enterococcus faecium, 2 µg/mL (≈ 3.92 µM); with Escherichia coli, 16 µg/mL (≈ 31.3 µM); with Acinetobacter baumannii, 4 µg/mL (≈ 7.83 µM); in the assay on Pseudomonas aeruginosa, greater than 16 µg/mL.
For the molecule `O=c1ccc2ncc(F)c(CCC34CCC(NCc5csc(-c6cccs6)n5)(CC3)CO4)c2n1CCO`, the MIC in the assay with Staphylococcus aureus is 0.5 µg/mL (≈ 0.925 µM); in the assay on Streptococcus pneumoniae, 1 µg/mL (≈ 1.85 µM); in the assay with Enterococcus faecium it was 16 µg/mL (≈ 29.6 µM); in the assay with Escherichia coli, 64 µg/mL (≈ 118 µM); in the assay with Acinetobacter baumannii, 32 µg/mL (≈ 59.2 µM); in the assay on Pseudomonas aeruginosa, greater than 32 µg/mL.
As to `O=c1ccc2ncc(F)c(CCC34CCC(NC/C=C/c5cc(F)ccc5F)(CC3)CO4)c2n1CCO`, the MIC with Staphylococcus aureus amounted to 0.031 µg/mL (≈ 0.0604 µM); with Streptococcus pneumoniae, 0.063 µg/mL (≈ 0.123 µM); with Enterococcus faecium, 2 µg/mL (≈ 3.89 µM); in the assay with Escherichia coli it was 2 µg/mL (≈ 3.89 µM); in the assay with Acinetobacter baumannii, 0.125 µg/mL (≈ 0.243 µM); with Pseudomonas aeruginosa, 8 µg/mL (≈ 15.6 µM).
Turning to `CNC(=O)Cn1c(=O)ccc2ncc(F)c(CCC34CCC(NCc5ccc6c(n5)NC(=O)CO6)(CC3)CO4)c21`, the MIC with Staphylococcus aureus was determined as 4 µg/mL (≈ 7.26 µM); in the assay with Streptococcus pneumoniae, 1 µg/mL (≈ 1.82 µM); with Enterococcus faecium, 16 µg/mL (≈ 29.1 µM); in the assay with Escherichia coli, 32 µg/mL (≈ 58.1 µM); with Acinetobacter baumannii it was 64 µg/mL (≈ 116 µM); in the assay on Pseudomonas aeruginosa it was 32 µg/mL (≈ 58.1 µM).
`O=c1ccc2ncc(F)c(CCC34CCC(NCc5cnc(-c6ccsc6)s5)(CC3)CO4)c2n1CCO`: the MIC in the assay with Staphylococcus aureus is 2 µg/mL (≈ 3.7 µM); in the assay on Streptococcus pneumoniae, 2 µg/mL (≈ 3.7 µM); in the assay on Enterococcus faecium, greater than 32 µg/mL; in the assay on Escherichia coli, greater than 32 µg/mL; in the assay with Acinetobacter baumannii, greater than 32 µg/mL; with Pseudomonas aeruginosa it was greater than 32 µg/mL.
As for `COc1ccc2nc(CNC34CCC(CCc5c(F)cnc6ccc(=O)n(CCO)c56)(CC3)OC4)c(F)cc2n1`, the MIC with Staphylococcus aureus, in the assay with Streptococcus pneumoniae, in the assay with Enterococcus faecium, in the assay on Escherichia coli, in the assay with Acinetobacter baumannii and with Pseudomonas aeruginosa was greater than 16 µg/mL throughout.
For `C[C@H]1CCc2cc(CNC34CCC(CCc5c(F)cnc6ccc(=O)n(CCO)c56)(CC3)OC4)ncc2O1`, the MIC in the assay with Staphylococcus aureus was 1 µg/mL (≈ 1.91 µM); with Streptococcus pneumoniae it was 2 µg/mL (≈ 3.83 µM); with Enterococcus faecium it was 32 µg/mL (≈ 61.2 µM); with Escherichia coli, 64 µg/mL (≈ 122 µM); in the assay on Acinetobacter baumannii it was 16 µg/mL (≈ 30.6 µM); with Pseudomonas aeruginosa it was greater than 64 µg/mL.
For the molecule `O=c1ccc2nc(CNC34CCC(CCc5c(F)cnc6ccc(=O)n(CCO)c56)(CC3)OC4)c(F)cc2[nH]1`, the MIC in the assay with Staphylococcus aureus, in the assay with Streptococcus pneumoniae, with Enterococcus faecium, with Escherichia coli, in the assay on Acinetobacter baumannii and with Pseudomonas aeruginosa was greater than 16 µg/mL in each case.
Consider `O=c1ccc2ncc(F)c(CCC34CCC(NCc5ccc6nonc6c5)(CC3)CO4)c2n1CCO`, for which the MIC was 2 µg/mL (≈ 4.05 µM) in the assay with Staphylococcus aureus; 32 µg/mL (≈ 64.8 µM) in the assay with Streptococcus pneumoniae; 64 µg/mL (≈ 130 µM) in the assay with Enterococcus faecium; greater than 64 µg/mL with Escherichia coli; 64 µg/mL (≈ 130 µM) in the assay with Acinetobacter baumannii; greater than 64 µg/mL in the assay with Pseudomonas aeruginosa.
Regarding `COc1ccc2nc(CNC34CCC(CCc5c(F)cnc6ccc(=O)n(CCO)c56)(CC3)OC4)c(F)c(C)c2n1`, the minimum inhibitory concentration (MIC) with Staphylococcus aureus, with Streptococcus pneumoniae, in the assay with Enterococcus faecium, with Escherichia coli, in the assay with Acinetobacter baumannii and in the assay with Pseudomonas aeruginosa was 32 µg/mL (≈ 56.6 µM) throughout.
Turning to `CS(=O)(=O)NCCn1c(=O)ccc2ncc(F)c(CCC34CCC(NCc5ccc6c(n5)NC(=O)CO6)(CC3)CO4)c21`, the minimum inhibitory concentration (MIC) in the assay with Staphylococcus aureus was 0.5 µg/mL (≈ 0.832 µM); in the assay with Streptococcus pneumoniae it was 1 µg/mL (≈ 1.66 µM); in the assay with Enterococcus faecium, 8 µg/mL (≈ 13.3 µM); with Escherichia coli, 16 µg/mL (≈ 26.6 µM); with Acinetobacter baumannii, 16 µg/mL (≈ 26.6 µM); in the assay on Pseudomonas aeruginosa, 32 µg/mL (≈ 53.3 µM).
As to `NC(=O)Cn1c(=O)ccc2ncc(F)c(CCC34CCC(NCc5ccc6c(n5)NC(=O)CO6)(CC3)CO4)c21`, the minimal inhibitory concentration (MIC) in the assay on Staphylococcus aureus was determined as 4 µg/mL (≈ 7.45 µM); with Streptococcus pneumoniae, 4 µg/mL (≈ 7.45 µM); in the assay on Enterococcus faecium it was 64 µg/mL (≈ 119 µM); in the assay with Escherichia coli, 32 µg/mL (≈ 59.6 µM); in the assay with Acinetobacter baumannii, 64 µg/mL (≈ 119 µM); in the assay on Pseudomonas aeruginosa, 16 µg/mL (≈ 29.8 µM).
With `O=c1ccc2ncc(F)c(CCC34CCC(NC[C@@H]5C[C@H]5c5cc(F)ccc5F)(CC3)CO4)c2n1CCO`, the MIC in the assay on Staphylococcus aureus was 0.5 µg/mL (≈ 0.948 µM); in the assay on Streptococcus pneumoniae, 1 µg/mL (≈ 1.9 µM); in the assay with Enterococcus faecium, 16 µg/mL (≈ 30.3 µM); in the assay with Escherichia coli it was 64 µg/mL (≈ 121 µM); in the assay on Acinetobacter baumannii, 32 µg/mL (≈ 60.7 µM); with Pseudomonas aeruginosa, greater than 64 µg/mL.
`O=c1ccc2ncc(F)c(CCC34CCC(NCCCc5cc(F)ccc5F)(CC3)CO4)c2n1CCO`: the MIC in the assay with Staphylococcus aureus is 0.125 µg/mL (≈ 0.242 µM); in the assay with Streptococcus pneumoniae, 0.5 µg/mL (≈ 0.97 µM); in the assay on Enterococcus faecium it was 16 µg/mL (≈ 31 µM); with Escherichia coli it was 16 µg/mL (≈ 31 µM); in the assay on Acinetobacter baumannii, 1 µg/mL (≈ 1.94 µM); with Pseudomonas aeruginosa, 64 µg/mL (≈ 124 µM).
